Reference: the NIST ThermoML archive (doi:10.1016/j.jct.2015.12.025)

Assay: refractive index (Na D-line) (dimensionless); xn = mol fraction of the nth substance listed
Details: 102 kPa, Liquid, Standard Abbe refractometry

C[Si]1(CCC(F)(F)F)O[Si](C)(CCC(F)(F)F)O[Si](C)(CCC(F)(F)F)O1 (stereo not given) + COc1ccccc1
refractive index
Details	308.15 K	313.15 K	318.15 K	323.15 K
x1 = 0.0502	1.48464	1.48208	1.47955	1.47695
x1 = 0.0999	1.4658	1.4633	1.46089	1.45834
x1 = 0.15	1.45042	1.44796	1.44565	1.44317
x1 = 0.1999	1.43774	1.43532	1.43308	1.43068
x1 = 0.2501	1.42699	1.42468	1.42242	1.42006
x1 = 0.2998	1.41796	1.41563	1.41345	1.41113
x1 = 0.3498	1.41011	1.40783	1.40566	1.40338
x1 = 0.4001	1.40327	1.401	1.39886	1.39659
x1 = 0.4497	1.39729	1.39509	1.39295	1.39069
x1 = 0.4997	1.39198	1.3898	1.38766	1.38549
x1 = 0.5453	1.38765	1.38551	1.38335	1.3812
x1 = 0.6001	1.38297	1.38081	1.37871	1.37655
x1 = 0.6498	1.37914	1.37703	1.37495	1.37279
x1 = 0.6995	1.3757	1.37358	1.37151	1.36941
x1 = 0.7502	1.3725	1.37039	1.36832	1.36625
x1 = 0.8	1.3696	1.36751	1.36547	1.36338
x1 = 0.8491	1.36697	1.36492	1.36288	1.36086
x1 = 0.8997	1.3645	1.36245	1.36042	1.35837
x1 = 0.9497	1.36221	1.36019	1.35818	1.35616
x1 = 1	1.36011	1.35808	1.35609	1.35407
